Test results published in patent US8846669B2, “Oxazolidinone derivative and medical composition containing same” (Legochem Biosciences, Inc., priority 2011, dated 2014).
≈ marks a conversion by molar mass, not a printed value. Where two headings read alike, the source gives them in different places.

Columns and labels:
Assay in all cases: In vitro antibacterial activity, broth microdilution MIC90
Format in all cases: cell-based
[1] = system: Staphylococcus epidermidis
Experimental: (§1) MIC90 was measured by broth microdilution method based on CLSI standards [reference: Clinical and Laboratory Standards Institute Document. (2000) Methods for Dilution Antimicrobial Susceptibility Test for Bacteria that Grow Aerobically-Fifth Edition: M7-A5. CLSI, Villanova, Pa.].
(§2) Activities of 12 strains including Staphylococcus aureus, Methicillin Resistant Staphylococcus aureus, Staphylococcus epidermidis, Methicillin Resistant Staphylococcus epidermidis, Enterococcus faecalis, Vancomycin Resistant Enterococcus faecalis, Linezolid and Vancomycin Resistant Enterococcus faecalis, Enterococcus faecium, Vancomycin Resistant Enterococcus faecium, Linezolid and Vancomycin Resistant Enterococcus faecium, and Moraxella catarrhalis, were measured, and results are shown in Table 1 below.
(§3) The final concentration of test material in the antibacterial test was from 0.063 μg/mL (minimum) to 128 μg/mL (maximum), and the final concentration of DMSO used as an excipient was 2.5% (V/V). Linezolid represented by Formula B below (manufactured by Pfizer) was used as a control and bacterial activity thereof was compared with those of the test materials.

[2] = system: Enterococcus faecium
Experimental: as §1, §2, §3

[3] = system: Linezolid and Vancomycin Resistant Enterococcus faecium (strain 11)
Experimental: as §1, §2, §3

[4] = system: Methicillin Resistant Staphylococcus epidermidis
Experimental: as §1, §2, §3

[5] = system: Methicillin Resistant Staphylococcus aureus
Experimental: as §1, §2, §3

[6] = system: Linezolid and Vancomycin Resistant Enterococcus faecalis
Experimental: as §1, §2, §3

[7] = system: Vancomycin Resistant Enterococcus faecium
Experimental: as §1, §2, §3

[8] = system: Staphylococcus aureus
Experimental: as §1, §2, §3

[9] = system: Linezolid and Vancomycin Resistant Enterococcus faecium (strain 10)
Experimental: as §1, §2, §3

[10] = system: Enterococcus faecalis
Experimental: as §1, §2, §3

[11] = system: Moraxella catarrhalis
Experimental: as §1, §2, §3

[12] = system: Vancomycin Resistant Enterococcus faecalis
Experimental: as §1, §2, §3

[13] = Staphylococcus epidermidis, strain 3, S. epidermidis, read-out: MIC90
[14] = Enterococcus faecium, strain 8, E. faecium, read-out: MIC90
[15] = Enterococcus faecium, strain 11, E. faecium VanA LR, read-out: MIC90
[16] = Staphylococcus epidermidis, strain 4, S. epidermidis MR, read-out: MIC90
[17] = Staphylococcus aureus, strain 2, S. aureus MR, read-out: MIC90
[18] = Enterococcus faecalis, strain 7, E. faecalis VanA LR, read-out: MIC90
[19] = Enterococcus faecium, strain 9, E. faecium VanA, read-out: MIC90
[20] = Staphylococcus aureus, strain 1, S. aureus, read-out: MIC90
[21] = Enterococcus faecium, strain 10, E. faecium VanA LR, read-out: MIC90
[22] = Enterococcus faecalis, strain 5, E. faecalis, read-out: MIC90
[23] = Moraxella catarrhalis, strain 12, M. catarrhalis, read-out: MIC90
[24] = Enterococcus faecalis, strain 6, E. faecalis VanA, read-out: MIC90

SMILES | MIC90 ([1]; Staphylococcus epidermidis) | MIC90 ([2]; Enterococcus faecium) | MIC90 ([3]; Enterococcus faecium) | MIC90 ([4]; Staphylococcus epidermidis) | MIC90 ([5]; Staphylococcus aureus) | MIC90 ([6]; Enterococcus faecalis) | MIC90 ([7]; Enterococcus faecium) | MIC90 ([8]; Staphylococcus aureus) | MIC90 ([9]; Enterococcus faecium) | MIC90 ([10]; Enterococcus faecalis) | MIC90 ([11]; Moraxella catarrhalis) | MIC90 ([12]; Enterococcus faecalis) | MIC90 [1, 13] | MIC90 [2, 14] | MIC90 [3, 15] | MIC90 [4, 16] | MIC90 [5, 17] | MIC90 [6, 18] | MIC90 [7, 19] | MIC90 [8, 20] | also measured
C=CCN1CCN(c2ccc(-c3ccc(N4C[C@H](CNC(C)=O)OC4=O)cc3F)cn2)C=N1 [Compound 7] | 0.5 µg/mL (≈ 1.1 µM) | 1 µg/mL (≈ 2.21 µM) | 4 µg/mL (≈ 8.84 µM) | 1 µg/mL (≈ 2.21 µM) | 1 µg/mL (≈ 2.21 µM) | 4 µg/mL (≈ 8.84 µM) | 1 µg/mL (≈ 2.21 µM) | 0.5 µg/mL (≈ 1.1 µM) | 4 µg/mL (≈ 8.84 µM) | 0.5 µg/mL (≈ 1.1 µM) | 2 µg/mL (≈ 4.42 µM) | 1 µg/mL (≈ 2.21 µM) |  |  |  |  |  |  |  |  | 
CC(=O)NC[C@H]1CN(c2ccc(N3CCOCC3)c(F)c2)C(=O)O1 [LZD, Linezolid, reference compound] |  |  |  |  |  |  |  |  |  |  |  |  | 1 µg/mL (≈ 2.96 µM) | 1 µg/mL (≈ 2.96 µM) | 64 µg/mL (≈ 190 µM) | 2 µg/mL (≈ 5.93 µM) | 2 µg/mL (≈ 5.93 µM) | 32 µg/mL (≈ 94.9 µM) | 2 µg/mL (≈ 5.93 µM) | 1 µg/mL (≈ 2.96 µM) | MIC90 [9, 21]: 32 µg/mL (≈ 94.9 µM); MIC90 [10, 22]: 2 µg/mL (≈ 5.93 µM); MIC90 [11, 23]: 8 µg/mL (≈ 23.7 µM); MIC90 [12, 24]: 2 µg/mL (≈ 5.93 µM)
O=C(CO)N1CCN(c2ccc(-c3ccc(N4C[C@H](CNc5ccon5)OC4=O)cc3F)cn2)C=N1 [Compound 41] |  |  |  |  |  |  |  |  |  |  |  |  |  |  |  |  |  |  |  |  | MIC90 ([1]; strain 3, S. epidermidis): 0.5 µg/mL (≈ 1.01 µM); MIC90 ([2]; strain 8, E. faecium): 0.125 µg/mL (≈ 0.252 µM); MIC90 ([3]; strain 11, E. faecium VanA LR): 4 µg/mL (≈ 8.07 µM); MIC90 ([4]; strain 4, S. epidermidis MR): 2 µg/mL (≈ 4.04 µM); MIC90 ([5]; strain 2, S. aureus MR): 0.25 µg/mL (≈ 0.505 µM); MIC90 ([6]; strain 7, E. faecalis VanA LR): 2 µg/mL (≈ 4.04 µM); MIC90 ([7]; strain 9, E. faecium VanA): 0.5 µg/mL (≈ 1.01 µM); MIC90 ([8]; strain 1, S. aureus): 0.25 µg/mL (≈ 0.505 µM); MIC90 ([9]; strain 10, E. faecium VanA LR): 4 µg/mL (≈ 8.07 µM); MIC90 ([10]; strain 5, E. faecalis): 0.5 µg/mL (≈ 1.01 µM); MIC90 ([11]; strain 12, M. catarrhalis): 2 µg/mL (≈ 4.04 µM); MIC90 ([12]; strain 6, E. faecalis VanA): 1 µg/mL (≈ 2.02 µM)
NCC(=O)N1CCN(c2ccc(-c3ccc(N4C[C@H](Cn5ccnn5)OC4=O)cc3F)cn2)C=N1 [Compound 38] | 0.5 µg/mL (≈ 1.04 µM) | 0.25 µg/mL (≈ 0.521 µM) | 4 µg/mL (≈ 8.34 µM) | 0.5 µg/mL (≈ 1.04 µM) | 0.5 µg/mL (≈ 1.04 µM) | 4 µg/mL (≈ 8.34 µM) | 0.5 µg/mL (≈ 1.04 µM) | 0.125 µg/mL (≈ 0.261 µM) | 4 µg/mL (≈ 8.34 µM) | 0.25 µg/mL (≈ 0.521 µM) | 2 µg/mL (≈ 4.17 µM) | 0.5 µg/mL (≈ 1.04 µM) |  |  |  |  |  |  |  |  | 
CC(=O)NC[C@H]1CN(c2ccc(-c3ccc(N4C=NN(C(=O)COC(=O)CCC(=O)O)CC4)nc3)c(F)c2)C(=O)O1 [Compound 13] |  |  |  |  |  |  |  |  |  |  |  |  | 1 µg/mL (≈ 1.75 µM) | 2 µg/mL (≈ 3.51 µM) | 2 µg/mL (≈ 3.51 µM) | 2 µg/mL (≈ 3.51 µM) | 2 µg/mL (≈ 3.51 µM) | 2 µg/mL (≈ 3.51 µM) | 1 µg/mL (≈ 1.75 µM) | 1 µg/mL (≈ 1.75 µM) | MIC90 [9, 21]: 2 µg/mL (≈ 3.51 µM); MIC90 [10, 22]: 1 µg/mL (≈ 1.75 µM); MIC90 [11, 23]: 2 µg/mL (≈ 3.51 µM); MIC90 [12, 24]: 1 µg/mL (≈ 1.75 µM)
CC(=O)NC[C@H]1CN(c2ccc(-c3ccc(N4C=NN(C(N)=O)CC4)nc3)c(F)c2)C(=O)O1 [Compound 17] | 0.25 µg/mL (≈ 0.549 µM) | 0.25 µg/mL (≈ 0.549 µM) | 2 µg/mL (≈ 4.39 µM) | 0.5 µg/mL (≈ 1.1 µM) | 0.5 µg/mL (≈ 1.1 µM) | 1 µg/mL (≈ 2.2 µM) | 0.25 µg/mL (≈ 0.549 µM) | 0.125 µg/mL (≈ 0.274 µM) | 2 µg/mL (≈ 4.39 µM) | 0.25 µg/mL (≈ 0.549 µM) | 2 µg/mL (≈ 4.39 µM) | 0.25 µg/mL (≈ 0.549 µM) |  |  |  |  |  |  |  |  | 
CNC(=O)N1CCN(c2ccc(-c3ccc(N4C[C@H](Cn5ccnn5)OC4=O)cc3F)cn2)C=N1 [Compound 34] | 0.5 µg/mL (≈ 1.04 µM) | 0.25 µg/mL (≈ 0.521 µM) | 4 µg/mL (≈ 8.34 µM) | 1 µg/mL (≈ 2.09 µM) | 0.5 µg/mL (≈ 1.04 µM) | 2 µg/mL (≈ 4.17 µM) | 0.5 µg/mL (≈ 1.04 µM) | 0.25 µg/mL (≈ 0.521 µM) | 2 µg/mL (≈ 4.17 µM) | 0.5 µg/mL (≈ 1.04 µM) | 2 µg/mL (≈ 4.17 µM) | 0.5 µg/mL (≈ 1.04 µM) |  |  |  |  |  |  |  |  | 
CCN1C=NN(c2ccc(-c3ccc(N4C[C@H](CNC(C)=O)OC4=O)cc3F)cn2)CC1 [Compound 56] |  |  |  |  |  |  |  |  |  |  |  |  | 1 µg/mL (≈ 2.27 µM) | 1 µg/mL (≈ 2.27 µM) | 4 µg/mL (≈ 9.08 µM) | 2 µg/mL (≈ 4.54 µM) | 4 µg/mL (≈ 9.08 µM) | 4 µg/mL (≈ 9.08 µM) | 1 µg/mL (≈ 2.27 µM) | 1 µg/mL (≈ 2.27 µM) | MIC90 [9, 21]: 4 µg/mL (≈ 9.08 µM); MIC90 [10, 22]: 1 µg/mL (≈ 2.27 µM); MIC90 [11, 23]: 2 µg/mL (≈ 4.54 µM); MIC90 [12, 24]: 2 µg/mL (≈ 4.54 µM)
O=C1O[C@@H](CNc2ccon2)CN1c1ccc(-c2ccc(N3C=NOCC3)nc2)c(F)c1 [Compound 61] |  |  |  |  |  |  |  |  |  |  |  |  |  |  |  |  |  |  |  |  | MIC90 ([1]; strain 3, S. epidermidis): 0.25 µg/mL (≈ 0.57 µM); MIC90 ([2]; strain 8, E. faecium): 0.25 µg/mL (≈ 0.57 µM); MIC90 ([3]; strain 11, E. faecium VanA LR): 2 µg/mL (≈ 4.56 µM); MIC90 ([4]; strain 4, S. epidermidis MR): 0.5 µg/mL (≈ 1.14 µM); MIC90 ([5]; strain 2, S. aureus MR): 0.25 µg/mL (≈ 0.57 µM); MIC90 ([6]; strain 7, E. faecalis VanA LR): 2 µg/mL (≈ 4.56 µM); MIC90 ([7]; strain 9, E. faecium VanA): 0.5 µg/mL (≈ 1.14 µM); MIC90 ([8]; strain 1, S. aureus): 0.063 µg/mL (≈ 0.144 µM); MIC90 ([9]; strain 10, E. faecium VanA LR): 2 µg/mL (≈ 4.56 µM); MIC90 ([10]; strain 5, E. faecalis): 0.5 µg/mL (≈ 1.14 µM); MIC90 ([11]; strain 12, M. catarrhalis): 2 µg/mL (≈ 4.56 µM); MIC90 ([12]; strain 6, E. faecalis VanA): 0.5 µg/mL (≈ 1.14 µM)
